In patent publication US20040253139A1, “Environmental surface disinfectant” (priority 2003, published 2004):

System: E. coli (ATCC 25922)
Assay: Lower effective concentration of ethyl lactate, modification of AOAC Method 956.17
Type: cell-based
Conditions: 15% solution of ethyl lactate, exposure 10 minutes
Experimental: Using a modification of AOAC Method 956.17, the lower effective concentration for ethyl lactate was tested against E. coli (ATCC 25922) at three reaction times at varying concentrations of ethyl lactate.

CCOC(=O)C(C)O (stereo not shown) [ethyl lactate]
Bacterial growth: eliminated bacterial growth
